Measured values as given in patent US10238713B2, “Cyclic tetrapeptides and therapeutic applications thereof” (LODZ UNIVERSITY OF TECHNOLOGY, priority 2010, dated 2019).
Values joined by “and” are separate entries in the source; they are usually repeats but may differ in a detail not shown here. Equal values may be shown once. Read-outs that look alike come from different tables or passages of the source. Non-standard residues stand in square brackets, D forms with d. Residues, ends and D or L forms follow the SMILES beside them. β3hF = N[C@H](CC(=O)O)Cc1ccccc1

Legend:
[1] = tested on: BALB/c mice, immune response to TDI; experiment: Toluene diisocyanate (TDI)-induced ear inflammation in BALB/c mice; assay type: in vivo
Protocol: BALB/c female mice, 8-10 weeks old, were delivered by the Institute of Laboratory Medicine, Łódź, Poland. The mice were fed a commercial, pelleted food and water ad libitum. The local ethics committee approved the study.
The test was performed according to Yamamoto, Eur. J. Pharmacol., 2006, 550, 166-172, with minor modifications. Mice were shaved on the abdomen (2×2 cm area) and after 24 h 100 μl of 3% TDI in acetone was applied through 3 consecutive days. After 14 days the reaction was elicited by application of 50 μl of 0.3% TDI on both sides of the ears. The procedure was repeated 5 times every 3 days. Ear thickness was measured using a spring caliper (Mitutoyo) 5 h and 24 h after each challenge with TDI.
Compound I-A was applied topically in the form of 0.1% ointment on both sides of the ears (total volume of 100 μl-50 μl per ear), one hour after each challenge with TDI. The reference drugs were applied in a similar way.
Superficial parotid, mandibular and accessory mandibular lymph nodes were isolated, homogenized by pressing against a stainless screen into PBS, washed 2× with PBS and re-suspended in PBS containing 0.2% Trypan blue. The total and nonviable cell numbers were counted using a light microscope and Bürker's hemocytometer.
Mice were subjected to halothane anesthesia and bled from the retro-orbital plexus, followed by the cervical dislocation. The number of blood leukocytes was determined by dilution of blood in Turk's solution and counting the cells in a hemocytometer. Blood smears were prepared on microscope glass, dried and stained with Giemsa and May-Grünwald reagents. The smears were subsequently reviewed histologically. The cell numbers were presented per 1 μl and the blood cell compositions as a percentage of a given cell type.
Mice were given 1 mg of Evans blue in 0.2 ml of 0.9% NaCl, intravenously. After 30 min mice were sacrificed, the ears were cut off, weighed and immersed in 50 μl of 1M KOH for 18 h at 37° C. The dye was extracted from the ears using 450 μl of 0.2 M phosphate acid and acetone (5:13 ratio). The samples were centrifuged at 3,000 rpm for 15 min. The optical densities (OD) of the supernatants were measured at 630 nm. The amount of Evans blue (g/ml) was determined based on a standard curve. The results were presented as the amount of Evans blue per 100 mg of wet tissue. Mice treated only with the eliciting dose of antigen served as a background control.
The auricles were fixed in 4% formalin solution for 48 h, washed for 24 h, dehydrated in an alcohol series and embedded in paraffin. The paraffin blocks were sliced in a Micron HM310 microtome into […]. The sections were stained with haematoxylin and eosin and with toluidine blue. Histological analysis was performed using a Nikon Eclipse 801light microscope. Morphometric estimations of neutrophils, macrophages, lymphocytes and mast cells in the perivascular and subepithelial connective tissue were performed on the histological slides containing cross-sections of auricles. Cells were counted on an area of 0.07 mm^2 at 400× magnification. Morphometric analysis was performed using an imagine software NIS-Elements (Nikon). For every preparation examined, 25 enumerations of neutrophils, macrophages, lymphocytes and mast cells were carried out.

[2] = tested on: LPS-induced TNF-α production; assay type: cell-based; details: for % inhibition vs. DMSO / TNF-α: Table 2A
Protocol: Human whole blood was diluted 10-fold with RPMI-1640 medium and distributed to 24-well culture plates in 1 ml aliquots. LPS was added to the culture at a concentration of 1 μg/ml. The studied peptides were used at concentrations of 1, 10 and 100 μg/ml. After overnight incubation, the supernatants were harvested and frozen at −20° C. until cytokine determination. TNF-α activity was determined using a bioassay. Briefly, WEHI 164.13 cells (ATCC CRL 1751) were seeded at a concentration of 2×10^4 cells/well in quadriplicate. Increasing dilutions of the assayed supernatant were mixed with the target cells in the presence of actinomycin D (1 μg/ml). After 20 h of incubation, MTT was added into the wells, and the cultures were incubated for an additional 4 h. […] The detection limit of the assay was about 2.5 pg/ml. One unit of TNF-α activity was defined as an inverse of supernatant dilution where 50% cell death took place. The cultures labeled “Control (−)” contained no LPS. The cultures labeled “Control (LPS)” contained LPS and none of the studied compounds. Statistical analysis was not applied since the data derive from single cultures (wells).

[3] = tested on: PHA-induced proliferation of human peripheral blood mononuclear cells (PBMC); experiment: Proliferative response of PBMC to PHA (MTT); assay type: cell-based; details: 1 μg/ml, four-day incubation; FIGS. 9A-9B; listed as 4B8M
[4] = tested on: CBA mice, cellular immune response to ovalbumin; experiment: Delayed type hypersensitivity (DTH) test to ovalbumin; assay type: in vivo; details: two 100 μg intraperitoneal doses; FIG. 7
Protocol: Male CBA mice 8-12 weeks old were delivered by The Institute of Laboratory Medicine, Lodz, Poland. The mice had free access to water and pelleted food. Ovoalbumin was from Sigma and the adjuvants from Difeo.
Mice were sensitized subcutaneously with 5 μg of ovalbumin (OVA) emulsified in Freund's complete adjuvant in the tail base. After 4 days the mice were challenged with 50 μg of OVA in Freund's incomplete adjuvant in the hind footpads. Following the next 24 hours, the footpad thickness was measured using a caliper. Controls (background response mice) were not sensitized but received the challenging dose of OVA. The compound of formula I-A and the reference compound were administered to mice in two 100 μg intraperitoneal doses, 2 h before and 24 h after the sensitizing dose of antigen.

In the case of `O=C1C[C@H](Cc2ccccc2)NC(=O)[C@@H]2CCCN2C(=O)[C@@H]2CCCN2C(=O)[C@H](Cc2ccccc2)N1` [I-A] (cyclo(FPP[β3hF])), the “ear thickness, P vs Control” value ([1]; 5 h after challenge, Day 14, topical 1 h after each TDI challenge, FIG. 10A) is reported as 0.0005, the “ear thickness, P vs Control” value ([1]; 5 h after challenge, Day 17, FIG. 10A) is reported as 0.0001 and the “ear thickness, P vs Control” value ([1]; 5 h after challenge, Day 20, FIG. 10A) is reported as 0.0001. For the same compound, the “ear thickness, P vs Control” value ([1]; 5 h after challenge, Day 23, FIG. 10A) was 0.0001, the “ear thickness, P vs Control” value ([1]; 5 h after challenge, Day 27, FIG. 10A) was 0.0001 and the “ear thickness, P vs Control” value ([1]; 24 h after challenge, Day 14, FIG. 10B) was 0.0001. For the same compound, the “ear thickness, P vs Control” value ([1]; 24 h after challenge, Day 17, FIG. 10B) was 0.0001, the “ear thickness, P vs Control” value ([1]; 24 h after challenge, Day 20, FIG. 10B) was 0.0006 and the “ear thickness, P vs Control” value ([1]; 24 h after challenge, Day 23, FIG. 10B) was 0.0001. For the same compound, the “ear thickness, P vs Control” value ([1]; 24 h after challenge, Day 27, FIG. 10B) was 0.0001, the “permeability of capillary blood vessels in the Evans blue test, P vs Control” value ([1]; 24 h after the fifth challenge with TDI (day 28), FIG. 11) was 0.030 and the “total number of cells in the draining lymph nodes, P vs Control” value ([1]; ANOVA of Kruskal-Wallis, FIG. 12) was 0.0001. For the same compound, the “numbers of circulating leukocytes, P vs Control” value ([1]; ANOVA, FIG. 13) was 0.0001, the “total number of cells in the draining lymph nodes” value ([1]; FIG. 12) was “reduction of the lymph node cell numbers almost to the background levels” and the “blood cell composition, Eosinophils (E), P vs Control” value ([1]; FIG. 14) was 0.0001. For the same compound, the “blood cell composition, Lymphocytes (L), P vs Control” value ([1]; FIG. 14) was 0.0043, the “blood picture (neutrophil and eosinophil contents)” value ([1]; FIG. 14) was “normalized” and the “auricle Ne (neutrophils), P vs Control” value ([1]; FIG. 15) was 0.0151. For the same compound, the “cell numbers in the auricles after treatment” value ([1]; area 0.07 mm^2, cell type not stated, sensitized untreated control: 20 mastocytes, 23 neutrophils, FIG. 15) was 14.8 cells per the analyzed area, the “% inhibition vs. DMSO” value ([2]; compound 1 μg/ml) was 9.8% and the TNF-α ([2]; compound 1 μg/ml, LPS 1 μg/ml, overnight) was 7364 pg/mL. For the same compound, the “% inhibition vs. DMSO” value ([2]; compound 10 μg/ml) was 10.4%, the TNF-α ([2]; compound 10 μg/ml) was 7176 pg/mL and the “% inhibition vs. DMSO” value ([2]; compound 100 μg/ml) was 9.2%. The TNF-α ([2]; compound 100 μg/ml (DMSO only: 196)) was 178 pg/mL, the “% of inhibition vs. DMSO” value ([2]; Table 2B, compound 1 μg/ml) was 10.0% and the TNF alpha ([2]; Table 2B, compound 1 μg/ml) was 4097 pg/mL. The TNF alpha ([2]; Table 2B, compound 10 μg/ml) was 4416 pg/mL, the TNF alpha ([2]; Table 2B, compound 100 μg/ml (DMSO only: 854)) was 979 pg/mL and the “PHA-induced PBMC proliferation, P vs DMSO at appropriate dilution” value [3] was 0.9995 and 0.9919. The “effect on delayed-type hypersensitivity reaction to OVA (footpad thickness)” value [4] was “inhibited the delayed-type hypersensitivity reaction to OVA” and the “suppressive action on DTH compared with reference compounds” value [4] was “stronger than those of CLA and CsA”.
